Results published in patent US20070179084A1, “Process for reducing the concentration of blood glucose in a diabetic patient” (Nation Chiao Tung University, priority 2006, published 2007).

What was measured:
C2C12 cells [1] = experiment: Observation of change in cell type, floating and damage of C2C12 cells after stimulation
Text: In FIG. 4, the columns with the same patterns represent the C2C12 cells stimulated by the same metal ion (or oxidized metal ion) solutions and the sign under the transverse axle indicates the concentration of the metal ion (or oxidized metal ion) solution, corresponding to each column.
In FIG. 8, the columns with the same patterns represent treatment with the same complex and the sign under the transverse axle indicates the concentration of the complex corresponding to each column.

C2C12 cells [2] = experiment: Glucose absorption (2-deoxy-D-glucose uptake) by differentiated C2C12 myotubes, Amplex Red Glucose/Glucose Oxidase Assay Kit; type: cell-based, mouse; conditions: for glucose absorption in contrast to C2C12 cells without stimulation (in words): 0.1 μM, 1 μM, 10 μM and 100 μM metal solution
Method: The cells are cultured and differentiate. […] Then, a half of the culture media are removed and replaced with fresh differentiation media (90% DMEM (Dulbecco's Modified Eagle's Medium) and 10% FBS (fetal bovine serum)). […] In normal physiological conditions, the myotube differentiates from the myoblast and aggregates to form muscle. Therefore, the myotube has a cell type most similar to muscle, so that the cell type of used cells is a myotube in the whole test experiment. The glucose extracted from the cells is determined. […] When starting the experiment, add the stimulating samples with suitable concentration to the culture media and incubate at 37° C. for 30 minutes (mins). […] Finally, incubate the cells on ice for 10 mins, to stop the reaction. Then, remove the culture media, and wash the cells three times with an ice-cold PBS solution. After washing, scrape the cells from the plate with ice-cold 65% EtOH and sonicate the cells. After spun in a centrifuge at 13000 rpm and 4° C. for 15 mins, transfer the supernatant to fresh the eppendorf tube and then spin the remainder in the centrifuge again to collect the supernatant again. The collected supernatants are mixed and dry the supernatant by vacuum centrifugation. After drying, the sample is acquired and assayed for […] levels using the Amplex Red Glucose/Glucose Oxidase Assay Kit.

[3] = 0.1 μM metal solution, co-treatment with 1 μM insulin, vs no stimulating sample
[4] = 1 μM metal solution, co-treatment with 10 μM insulin, vs no stimulating sample
[5] = 10 μM metal solution, co-treatment with 6 pM insulin, vs no stimulating sample
[6] = 100 μM metal solution, 30 min, vs C2C12 cells without stimulation
[7] = 100 μM metal solution, co-treatment with 1 μM insulin, vs no stimulating sample
[8] = 1 mM metal solution and the insulin
[9] = 1 mM metal solution, no insulin
[10] = 40 mg/ml solution including 1 mM metal ion, no insulin
[11] = 10 μM metal solution, 30 min, vs C2C12 cells without stimulation
[12] = 40 μg/ml complex, co-treated with 10 μM insulin, vs no stimulating sample
[13] = 40 mg/ml complex solution including 1 mM metal ion and the insulin

[Co+3] [Co^3+, cobalt (III) ion]
change of cell type / damage of C2C12 cells (C2C12 cells [1]; 100 μM metal solution with insulin co-treatment): the type of C2C12 cells changes and the C2C12 cells are damaged
change of cell type / damage of C2C12 cells (C2C12 cells [1]; stimulation for 30 mins, 100 μM (high concentration) for metal solution): damaged at a certain level
fold increase in glucose absorption (C2C12 cells [2]; [3]): 7.73 fold
glucose absorption in contrast to C2C12 cells without stimulation (in words) (C2C12 cells [2]): enhanced
fold increase in glucose absorption (C2C12 cells [2]; [4]): 4.37 fold
fold increase in glucose absorption (C2C12 cells [2]; [5]): 3.95 fold
fold increase in glucose absorption (C2C12 cells [2]; [6]): 3.14 fold
fold increase in glucose absorption (C2C12 cells [2]; [7]): 8.5 fold
fold increase in glucose absorption (C2C12 cells [2]; [8]): 4.4 fold
fold increase in glucose absorption (C2C12 cells [2]; [9]): 2.5 fold
fold increase in glucose absorption (C2C12 cells [2]; [10]): 3.0 fold

[Cr+3] [Cr^3+, chromium (III) ion]
fold increase in glucose absorption (C2C12 cells [2]; [3]): 4.84 fold
glucose absorption in contrast to C2C12 cells without stimulation (in words) (C2C12 cells [2]): enhanced
fold increase in glucose absorption (C2C12 cells [2]; 1 μM metal solution, co-treatment with 1 μM insulin, vs no stimulating sample): 3.71 fold
fold increase in glucose absorption (C2C12 cells [2]; [11]): 2.21 fold
fold increase in glucose absorption (C2C12 cells [2]; [5]): 2.36 fold
fold increase in glucose absorption (C2C12 cells [2]; [6]): 2.41 fold
fold increase in glucose absorption (C2C12 cells [2]; [7]): 3.74 fold
fold increase in glucose absorption (C2C12 cells [2]; [8]): 1.3 fold
fold increase in glucose absorption (C2C12 cells [2]; [9]): 1.6 fold
fold increase in glucose absorption (C2C12 cells [2]; [10]): 3.9 fold

[O]=[V+2] [VO^2+, vanadyl]
fold increase in glucose absorption (C2C12 cells [2]; 0.1 μM metal solution, co-treatment with 0.1 μM insulin, vs no stimulating sample): 2.62 fold
glucose absorption in contrast to C2C12 cells without stimulation (in words) (C2C12 cells [2]): enhanced
fold increase in glucose absorption (C2C12 cells [2]; [4]): 2.7 fold
fold increase in glucose absorption (C2C12 cells [2]; [11]): 2.61 fold
fold increase in glucose absorption (C2C12 cells [2]; 10 μM metal solution, co-treatment with 10 μM insulin, vs no stimulating sample): 6.21 fold
fold increase in glucose absorption (C2C12 cells [2]; [6]): 2.38 fold
fold increase in glucose absorption (C2C12 cells [2]; [7]): 3.4 fold
fold increase in glucose absorption (C2C12 cells [2]; [8]): 2.7 fold
fold increase in glucose absorption (C2C12 cells [2]; [9]): 1.9 fold
fold increase in glucose absorption (C2C12 cells [2]; [10]): 4.4 fold

Co-TF: complex of the transferrin and Co^3+, from apo-transferrin and Co^3+ solution (3:1 mole ratio)
fold increase in glucose absorption (C2C12 cells [2]; [12]): 7.01 fold
fold increase in glucose absorption (C2C12 cells [2]; 100 μg/ml complex, vs no stimulating sample): 4.97 fold
fold increase in glucose absorption (C2C12 cells [2]; [13]): 7.1 fold

Cr-TF: complex of the transferrin and Cr^3+
fold increase in glucose absorption (C2C12 cells [2]; [12]): 4.94 fold
fold increase in glucose absorption (C2C12 cells [2]; 80 μg/ml complex, vs no stimulating sample): 4.03 fold
fold increase in glucose absorption (C2C12 cells [2]; [13]): 5.0 fold

VO-TF: complex of the transferrin and VO^2+
fold increase in glucose absorption (C2C12 cells [2]; [12]): 6.07 fold
fold increase in glucose absorption (C2C12 cells [2]; 40 μg/ml complex, vs no stimulating sample): 4.43 fold
fold increase in glucose absorption (C2C12 cells [2]; [13]): 6.1 fold
